From patent US12324802B2, “Modulators of cystic fibrosis transmembrane conductance regulator” (Vertex Pharmaceuticals Incorporated, priority 2020, dated 2025)

Target: T1, CFTR (F508del/MF-HBE cells) (Homo sapiens, UniProt P13569, DEL508-508)
T1 construct: human bronchial epithelial (HBE) cells derived from CF subjects heterozygous for F508del and a minimal function CFTR mutation; endogenous in cells; host or cells: primary human bronchial epithelial cells from CF subjects (F508del/MF genotype)
Assay: Ussing chamber assay of CFTR-mediated short-circuit currents (identification of potentiator compounds)
Assay type: cell-based
Conditions: CFTR-mediated ISC in F508del/MF-HBE cells; incubated 18-24 hours at 37° C. with 10 μM (14S)-8-[3-(2-{dispiro[2.0.2.1]heptan-7-yl}ethoxy)-1H-pyrazol-1-yl]-...-2,2,4-trione, 20% human serum
Method in brief: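 Short-circuit current was voltage-clamped at 0 mV and 37 °C in pH 7.4 HEPES buffers, with amiloride (30 μM) on the apical side. The CFTR component was defined as forskolin (20 μM) peak minus residual current after BPO/GlyH-101/CFTRinh-172 at 20 μM each. Cells had been pretreated 18–24 h with potentiator concentrations and 10 μM corrector in 20% human serum, kept throughout the measurement.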

T1 sequence (P13569 with tags, fused parts or gaps DEL508-508): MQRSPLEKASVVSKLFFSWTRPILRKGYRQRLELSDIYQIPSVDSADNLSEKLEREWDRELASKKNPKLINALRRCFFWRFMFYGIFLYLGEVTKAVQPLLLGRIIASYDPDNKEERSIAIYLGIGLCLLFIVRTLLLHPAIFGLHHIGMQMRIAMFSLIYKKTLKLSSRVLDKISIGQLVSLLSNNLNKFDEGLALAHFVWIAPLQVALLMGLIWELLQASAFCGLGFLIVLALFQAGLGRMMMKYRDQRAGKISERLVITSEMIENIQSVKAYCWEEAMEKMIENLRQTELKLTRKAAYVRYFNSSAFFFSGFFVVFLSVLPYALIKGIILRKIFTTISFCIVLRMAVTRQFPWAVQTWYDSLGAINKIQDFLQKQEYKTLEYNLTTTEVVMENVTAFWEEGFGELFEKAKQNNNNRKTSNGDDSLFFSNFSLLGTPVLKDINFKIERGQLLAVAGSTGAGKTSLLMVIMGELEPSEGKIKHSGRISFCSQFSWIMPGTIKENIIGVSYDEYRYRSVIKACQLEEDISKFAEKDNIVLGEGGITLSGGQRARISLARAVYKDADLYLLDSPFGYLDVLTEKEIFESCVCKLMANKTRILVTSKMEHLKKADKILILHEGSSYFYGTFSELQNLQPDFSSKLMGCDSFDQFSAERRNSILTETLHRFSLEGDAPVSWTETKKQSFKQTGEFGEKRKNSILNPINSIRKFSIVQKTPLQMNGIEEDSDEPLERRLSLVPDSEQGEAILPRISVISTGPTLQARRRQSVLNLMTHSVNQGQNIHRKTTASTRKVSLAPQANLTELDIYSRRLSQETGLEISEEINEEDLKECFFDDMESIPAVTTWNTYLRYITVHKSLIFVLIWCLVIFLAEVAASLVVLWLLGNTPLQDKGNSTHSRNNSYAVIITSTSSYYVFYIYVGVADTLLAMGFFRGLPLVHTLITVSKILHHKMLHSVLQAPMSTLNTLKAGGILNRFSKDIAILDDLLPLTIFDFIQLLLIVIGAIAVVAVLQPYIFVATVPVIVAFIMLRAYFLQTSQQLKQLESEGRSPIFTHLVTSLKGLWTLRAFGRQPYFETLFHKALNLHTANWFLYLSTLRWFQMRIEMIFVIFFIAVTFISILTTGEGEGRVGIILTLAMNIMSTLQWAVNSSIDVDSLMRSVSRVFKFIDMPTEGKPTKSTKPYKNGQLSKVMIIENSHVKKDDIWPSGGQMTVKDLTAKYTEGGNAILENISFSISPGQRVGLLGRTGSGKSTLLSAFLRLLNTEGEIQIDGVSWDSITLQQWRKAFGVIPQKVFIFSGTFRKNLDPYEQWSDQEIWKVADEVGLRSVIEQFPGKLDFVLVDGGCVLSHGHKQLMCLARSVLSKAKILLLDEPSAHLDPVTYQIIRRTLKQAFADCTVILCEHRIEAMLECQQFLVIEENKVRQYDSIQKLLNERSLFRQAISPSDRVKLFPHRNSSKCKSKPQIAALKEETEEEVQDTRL

SMILES | EC50 [µM]
CN(C)C(=O)C1CCCCCC(O)(C(F)(F)F)C2=NN=C(O2)c2nc(c(C(F)(F)F)cc2N)N1 (single isomer, unassigned) [Compound 151, 17-amino-6-hydroxy-N,N-dimethyl-6,15-bis(trifluoromethyl)-19-oxa-3,4,13,18-tetrazatricyclo[12.3.1.12,5]nonadeca-1(18),2,4,14,16-pentaene-12-carboxamide] | > 1
Nc1cc(S(=O)(=O)c2ccc(OC(F)(F)F)cc2)c2nc1-c1nnc(o1)C(O)(C(F)(F)F)CCCCC[C@@H]1CCCN21 (single isomer, unassigned) [Compound 152] | < 0.5
Nc1cc(S(=O)(=O)c2ccc(OC(F)(F)F)cc2)c2nc1-c1nnc(o1)C(O)(C(F)(F)F)CCCCC[C@@H]1CCCN21 (single isomer, unassigned) [Compound 153] | > 1
Nc1cc(C(F)(F)F)c2nc1-c1nnc(o1)[C@@](O)(C(F)(F)F)CCCCCC(C(=O)O)N2 (single isomer, unassigned) [Compound 155] | > 1
Nc1cc(C(F)(F)F)c2nc1-c1nnc(o1)[C@@](O)(C(F)(F)F)CCCCCC(C(=O)O)N2 (single isomer, unassigned) [Compound 156] | < 0.5
Nc1cc(C(F)(F)F)c2nc1-c1nnc(o1)[C@@](O)(C(F)(F)F)CCCCCC(C(=O)N1CCCC1)N2 (single isomer, unassigned) [Compound 157] | < 0.5
Nc1cc(C(F)(F)F)c2nc1-c1nnc(o1)[C@@](O)(C(F)(F)F)CCCCCC(C(=O)N1CCCC1)N2 (single isomer, unassigned) [Compound 158] | > 1
COc1cc2nc(c1N)-c1nnc(o1)C(O)(C(F)(F)F)CCCCC[C@@H]1CCCN21 (single isomer, unassigned) [Compound 159] | > 1
COc1cc2nc(c1N)-c1nnc(o1)C(O)(C(F)(F)F)CCCCC[C@@H]1CCCN21 (single isomer, unassigned) [Compound 160] | > 1
CS(=O)(=O)c1cc(N)c2nc1N1CCC[C@H]1CCCCCC(O)(C(F)(F)F)C1=NN=C2O1 (single isomer, unassigned) [Compound 161] | < 0.5
Nc1cc(C(F)(F)F)c2nc1-c1nnc(o1)C(O)(C(F)(F)F)CCCOC[C@@H]1CCCN21 (single isomer, unassigned) [Compound 167] | < 0.5
COC(=O)c1cc(N)c2nc1N1CCC[C@H]1CCCCCC(O)(C(F)(F)F)C1=NN=C2O1 (single isomer, unassigned) [Compound 169] | > 1
COC(=O)c1cc(N)c2nc1N1CCC[C@H]1CCCCCC(O)(C(F)(F)F)C1=NN=C2O1 (single isomer, unassigned) [Compound 170] | < 0.5
CC1(C)CCCCC(O)(C(F)(F)F)C2=NN=C(O2)c2nc(c(C(F)(F)F)cc2N)NC1 (single isomer, unassigned) [Compound 171, 17-amino-11,11-dimethyl-6,15-bis(trifluoromethyl)-19-oxa-3,4,13,18-tetrazatricyclo[12.3.1.12,5]nonadeca-1(18),2,4,14,16-pentaen-6-ol] | < 0.5
CC1(C)CCCCC(O)(C(F)(F)F)C2=NN=C(O2)c2nc(c(C(F)(F)F)cc2N)NC1 (single isomer, unassigned) [Compound 172, 17-amino-11,11-dimethyl-6,15-bis(trifluoromethyl)-19-oxa-3,4,13,18-tetrazatricyclo[12.3.1.12,5]nonadeca-1(18),2,4,14,16-pentaen-6-ol] | < 0.5
CC1(CO)CCCCC[C@](O)(C(F)(F)F)C2=NN=C(O2)c2nc(c(C(F)(F)F)cc2N)N1 (single isomer, unassigned) [Compound 174] | < 0.5
CC1(CO)CCCCC[C@](O)(C(F)(F)F)C2=NN=C(O2)c2nc(c(C(F)(F)F)cc2N)N1 (single isomer, unassigned) [Compound 175] | < 0.5
CC(C)C1CCCCC[C@](O)(C(F)(F)F)C2=NN=C(O2)c2nc(c(C(F)(F)F)cc2N)N1 (single isomer, unassigned) [Compound 178] | < 0.5
CC(C)C1CCCCC[C@](O)(C(F)(F)F)C2=NN=C(O2)c2nc(c(C(F)(F)F)cc2N)N1 (single isomer, unassigned) [Compound 179] | < 0.5
Nc1cc(C(F)(F)F)c2nc1-c1nnc(o1)[C@@](O)(C(F)(F)F)CCCCCC(Cc1ccccc1)N2 (single isomer, unassigned) [Compound 180] | < 0.5

SMILES | EC50 [µM]
Nc1cc(C(F)(F)F)c2nc1-c1nnc(o1)[C@@](O)(C(F)(F)F)CCCCCC(c1ccc(F)cc1)N2 (single isomer, unassigned) [Compound 182] | < 0.5
Nc1cc(C(F)(F)F)c2nc1-c1nnc(o1)[C@@](O)(C(F)(F)F)CCCCCC(c1ncco1)N2 (single isomer, unassigned) [Compound 184] | < 0.5
CC1(C)CCC(O)CC[C@](O)(C(F)(F)F)C2=NN=C(O2)c2nc(c(C(F)(F)F)cc2N)N1 (single isomer, unassigned) [Compound 189] | > 1
CC1(C)CCC(O)CC[C@](O)(C(F)(F)F)C2=NN=C(O2)c2nc(c(C(F)(F)F)cc2N)N1 (single isomer, unassigned) [Compound 190] | < 0.5
Nc1cc(C(F)(F)F)c2nc1-c1nnc(o1)[C@@](O)(C(F)(F)F)CCCCCC(C1CC1)N2 (single isomer, unassigned) [Compound 191] | < 0.5
Nc1cc(C(F)(F)F)c2nc1-c1nnc(o1)[C@@](O)(C(F)(F)F)CCCCCC(C1CC1)N2 (single isomer, unassigned) [Compound 192] | < 0.5
CC1(C)CCCCC(O)C(O)(C(F)(F)F)C2=NN=C(O2)c2nc(c(C(F)(F)F)cc2N)N1 (single isomer, unassigned) [Compound 194, 17-amino-12,12-dimethyl-6,15-bis(trifluoromethyl)-19-oxa-3,4,13,18-tetrazatricyclo[12.3.1.12,5]nonadeca-1(18),2,4,14,16-pentaene-6,7-diol] | < 0.5
CC1(C)CCCCC(O)C(O)(C(F)(F)F)C2=NN=C(O2)c2nc(c(C(F)(F)F)cc2N)N1 (single isomer, unassigned) [Compound 195, 17-amino-12,12-dimethyl-6,15-bis(trifluoromethyl)-19-oxa-3,4,13,18-tetrazatricyclo[12.3.1.12,5]nonadeca-1(18),2,4,14,16-pentaene-6,7-diol] | > 1
CC1(C)CCCOCC(O)(C(F)(F)F)C2=NN=C(O2)c2nc(c(C(F)(F)F)cc2N)N1 (single isomer, unassigned) [Compound 197, 17-amino-12,12-dimethyl-6,15-bis(trifluoromethyl)-8,19-dioxa-3,4,13,18-tetrazatricyclo[12.3.1.12,5]nonadeca-1(18),2,4,14,16-pentaen-6-ol] | < 0.5
CC1(C)COCCCC(O)(C(F)(F)F)C2=NN=C(O2)c2nc(c(C(F)(F)F)cc2N)N1 (single isomer, unassigned) [Compound 199, 17-amino-12,12-dimethyl-6,15-bis(trifluoromethyl)-10,19-dioxa-3,4,13,18-tetrazatricyclo[12.3.1.12,5]nonadeca-1(18),2,4,14,16-pentaen-6-ol] | < 0.5
Nc1cc(C(F)(F)F)c2nc1-c1nnc(o1)[C@@](O)(C(F)(F)F)CCCCCC(c1ncccn1)N2 (single isomer, unassigned) [Compound 201] | < 0.5
CC1(C)Nc2nc(c(N)cc2C(F)(F)F)C2=NN=C(O2)[C@@](O)(C(F)(F)F)CCCCC1O (single isomer, unassigned) [Compound 203] | < 0.5
CC1(C)Nc2nc(c(N)cc2C(F)(F)F)C2=NN=C(O2)[C@@](O)(C(F)(F)F)CCCCC1O (single isomer, unassigned) [Compound 204] | < 0.5
Nc1cc(C(F)(F)F)c2nc1-c1nnc(o1)[C@@](O)(C(F)(F)F)CCCCCC1(CCOC1)N2 (single isomer, unassigned) [Compound 207] | < 0.5
Nc1cc(C(F)(F)F)c2nc1-c1nnc(o1)[C@@](O)(C(F)(F)F)CCCCCC1(CCOC1)N2 (single isomer, unassigned) [Compound 208] | < 0.5
Nc1cc(C(F)(F)F)c2nc1-c1nnc(o1)[C@@](O)(C(F)(F)F)CCCCC[C@@H]1CCCN21 [Compound 4, (6R,12R)-20-amino-6,18-bis(trifluoromethyl)-22-oxa-3,4,16,21-tetraazatetracyclo[15.3.1.12,5.012,16]docosa-1(21),2,4,17,19-pentaen-6-ol] | < 0.5
Nc1cc(C(F)(F)F)c2nc1-c1nnc(o1)[C@](O)(C(F)(F)F)CCCCC[C@@H]1CCCN21 [Compound 5, (6S,12R)-20-amino-6,18-bis(trifluoromethyl)-22-oxa-3,4,16,21-tetraazatetracyclo[15.3.1.12,5.012,16]docosa-1(21),2,4,17,19-pentaen-6-ol] | > 1
Nc1cc(C(F)(F)F)c2nc1-c1nnc(o1)C(O)(C(F)(F)F)CCCCC1CCN2C1 (stereo not shown) [Compound 8, 16-amino-10,18-bis(trifluoromethyl)-20-oxa-2,12,13,19-tetraazatetracyclo[13.3.1.12,5.111,14]henicosa-1(19),11,13,15,17-pentaen-10-ol] | < 0.5
Nc1cc(C(F)(F)F)c2nc1-c1nnc(o1)C(O)(C(F)(F)F)CCCCC1CCN2C1 (stereo not shown) [Compound 9, 16-amino-10,18-bis(trifluoromethyl)-20-oxa-2,12,13,19-tetraazatetracyclo[13.3.1.12,5.111,14]henicosa-1(19),11,13,15,17-pentaen-10-ol] | < 0.5
Nc1cc(C(F)(F)F)c2nc1-c1nnc(o1)/C(C(F)(F)F)=C\CCCC[C@@H]1CCCN21 [Compound 10, (6E,12R)-6,18-bis(trifluoromethyl)-22-oxa-3,4,16,21-tetraazatetracyclo[15.3.1.12,5.012,16]docosa-1(21),2,4,6,17,19-hexaen-20-amine] | > 1
